Test results taken from patent US7049116B2, “Engineered protein kinases which can utilize modified nucleotide triphosphate substrates” (Princeton University, priority 1997, dated 2006).
“Also recorded” adds a separate entry of the source.

What was measured:
[1] = system: NIH3T3 cells expressing v-Src; assay: Anti-phosphotyrosine blots of pyrazolopyrimidine treated NIH3T3 cells (Examples 18-19); format: cell-based; settings: FIG. 12B two left lanes
Protocol: Anti-phosphotyrosine blots of pyrazolo pyrimidine (2-6) (25 μM) treated NIH3T3 cells expressing v-Src kinase were performed by lysing cells in modified RIPA buffer according to the method of Coussens et al. (1985) Biol. 2753-2763. Cells were also treated for various times before lysis and antiphosphotyrosine detection. Proteins were separated by 12.5% SDS-PAGE and transferred to Protran BA85 (Schleicher-Schuell). The blot was probed with the antiphosphotyrosine monoclonal antibody 4G10 (obtained from Dr. Brian Druker, Oregon Health Sciences Center) and the bound antibody was detected via enhanced chemiluminescence (Pierce) following treatment with HRP-coupled goat anti-mouse antibody (VWR) according to the manufacturer's instructions.
The assays were performed by making anti-phosphotyrosine blots of pyrazolopyrimidine (26) (25 μM) treated NIH3T3 cells expressing either v-Src or v-Src (I338G) kinases were performed by lysing cells in modified RIPA buffer according to the method of Coussens et al. (1985) Biol. 2753-2763. […]
(§4) The blot was probed with the anti-phosphotyrosine monoclonal antibody 4G10 and the bound antibody was detected via enhanced chemiluminescence (Pierce) following treatment with HRP-coupled goat-anti-mouse antibody (VWR) according to the manufacturer's instructions.

[2] = system: NIH3T3 cells expressing v-Src (I338G); assay: Anti-phosphotyrosine blots of pyrazolopyrimidine treated NIH3T3 cells (Example 19); format: cell-based
Protocol: The assays were performed by making anti-phosphotyrosine blots of pyrazolopyrimidine (26) (25 μM) treated NIH3T3 cells expressing either v-Src or v-Src (I338G) kinases were performed by lysing cells in modified RIPA buffer according to the method of Coussens et al. (1985) Biol. 2753-2763. Cells were also treated for various times (in a cell culture CO2 incubator) before lysis and anti-phosphotyrosine detection. Proteins were separated by 12.5% SDS-PAGE and transferred to Protran BA85 (Schleicher-Schuell).
as §4

wild-type Fyn = wild-type Fyn (Homo sapiens, UniProt P06241); assay: Peptide phosphorylation assay with [γ-32P]ATP (Example 13); format: biochemical; settings: purified kinase; read-out: IC50 for inhibition of wild-type Fyn
Chain of wild-type Fyn (P06241 whole entry, species assumed): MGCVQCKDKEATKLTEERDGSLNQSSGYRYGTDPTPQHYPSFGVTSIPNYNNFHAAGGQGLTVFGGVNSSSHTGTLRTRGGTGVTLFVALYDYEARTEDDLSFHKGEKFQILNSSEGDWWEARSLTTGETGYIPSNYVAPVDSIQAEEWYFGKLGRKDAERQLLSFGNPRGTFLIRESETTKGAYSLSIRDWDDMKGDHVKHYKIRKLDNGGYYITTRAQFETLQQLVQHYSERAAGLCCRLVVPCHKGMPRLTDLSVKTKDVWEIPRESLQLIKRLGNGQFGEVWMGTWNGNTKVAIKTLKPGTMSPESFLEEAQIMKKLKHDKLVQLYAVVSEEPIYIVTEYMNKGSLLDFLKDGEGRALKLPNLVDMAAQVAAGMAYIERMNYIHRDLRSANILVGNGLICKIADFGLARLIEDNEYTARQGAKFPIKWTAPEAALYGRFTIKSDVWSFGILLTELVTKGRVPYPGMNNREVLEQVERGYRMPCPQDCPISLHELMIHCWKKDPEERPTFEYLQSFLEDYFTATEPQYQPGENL
Source text: To identify compounds that would not inhibit any existing cellular kinases, Applicant screened the panel of synthetic pyrazolo pyramidine analogs (1-6) against two closely related purified tyrosine kinases, v-Src and Fyn, in a peptide phosphorylation assay using [γ-^32P]

T339G Fyn = target: T1, T339G Fyn (Homo sapiens, UniProt P06241, T342G); assay: In vitro kinase inhibition assay; format: biochemical
T1 construct: GST; made in house; host or cells: E. coli DH5α (pGEX-KT)
T1 sequence (P06241 1-534 isoform P06241-2 T339G): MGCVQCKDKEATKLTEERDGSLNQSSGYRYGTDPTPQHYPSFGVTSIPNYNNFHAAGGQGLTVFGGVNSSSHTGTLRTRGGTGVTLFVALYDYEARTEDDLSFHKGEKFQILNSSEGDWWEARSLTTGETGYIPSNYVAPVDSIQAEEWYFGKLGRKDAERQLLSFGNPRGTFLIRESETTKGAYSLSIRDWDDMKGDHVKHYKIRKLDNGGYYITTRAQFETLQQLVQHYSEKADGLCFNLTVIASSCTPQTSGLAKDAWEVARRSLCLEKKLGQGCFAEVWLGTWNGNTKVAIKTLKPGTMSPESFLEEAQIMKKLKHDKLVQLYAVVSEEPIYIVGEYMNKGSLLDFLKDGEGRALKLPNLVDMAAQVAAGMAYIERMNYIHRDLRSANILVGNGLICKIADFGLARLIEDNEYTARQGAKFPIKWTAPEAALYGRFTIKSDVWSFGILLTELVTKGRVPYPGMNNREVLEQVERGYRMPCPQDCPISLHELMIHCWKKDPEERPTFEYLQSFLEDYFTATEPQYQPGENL

PKA = target: T2, PKA (Homo sapiens, UniProt P17612); assay: In vitro kinase inhibition assay; format: biochemical; settings: concentrations up to 300 mM
T2 construct: purchased Pierce
Protocol: (§1) IC50's for non-src family kinases were measured equivalently with the following exceptions. […] An optimized Abl substrate, […] (SEQ ID NO: 18), 133 mg/ml) was used for Abl assays.

[3] = system: WT v-Src transformed NIH-3T3 fibroblasts; assay: Microscopy of transformed fibroblasts (light microscopy, phalloidin-FITC); format: cell-based; settings: 100 μM, 48 hours
Protocol: (§2) Non-transformed, WT v-Src transformed, and I338G v-Src transformed NIH-3T3 fibroblasts were grown in DMEM/10% BCS on tissue culture treated slides. v-Src expressing cells were treated with either 1.1% DMSO or 100 μM (^3g) in 1.1% DMSO. After forty-eight hours cells were photographed at 400× magnification on an Nikon TMS light microscope. Immediately following light microscopy, the cells were fixed for twenty minutes in 3.7% formaldehyde/PBS and permeabilized for sixty seconds in 0.2% Triton x-100 in PBS. Permeabilized cells were incubated with 200 ng/ml phalloidin-FITC/PBS for twenty minutes. Slides were rinsed with PBS and polymerized actin was visualized by fluorescence microscopy at 600× magnification on a Zeiss fluorescence microscope.

[4] = system: I338G v-Src transformed NIH-3T3 fibroblasts; assay: as above; format: cell-based; settings: 100 μM, 48 hours
Protocol: as §2

[5] = system: WT v-Src transformed NIH3T3 cells; assay: Inhibition of v-Src in NIH3T3 fibroblasts (phosphotyrosine blot); format: cell-based; settings: 100 μM, twelve hours
Protocol: (§3) Non-transformed NIH3T3 cells, WT v-Src transformed NIH3T3 cells, and I338G v-Src transformed NIH3T3 cells were incubated at 37° C. with 1.1% DMSO or 100 μM (3g) in 1.1% DMSO. After twelve hours, the cells were washed with PBS and lysed (lysis buffer: 1% Triton x-100, 50 mM tris (pH 7.4), 2 mM EDTA, 150 mM NaCl, […], 2 mM sodium orthovanadate, 10 mg/ml leupeptin, 10 mg/ml apoprotin). The lysate was clarified by centrifugation at 13,000 rpm for fifteen minutes. Lysate protein concentrations were normalized and equal volumes of the lysate were resolved electrophoretically and analyzed for phosphotyrosine content as described above.

[6] = system: I338G v-Src transformed NIH3T3 cells; assay: as above; format: cell-based
Protocol: as §3

PKCδ = target: T3, PKCδ (Homo sapiens, UniProt Q05655); assay: In vitro kinase inhibition assay; format: biochemical; design: dose or concentration left out as unconfirmed
T3 construct: 6-His; made in house; host or cells: Bac-to-Bac baculovirus system (pFastBac B vector)
T3 sequence (Q05655 whole entry): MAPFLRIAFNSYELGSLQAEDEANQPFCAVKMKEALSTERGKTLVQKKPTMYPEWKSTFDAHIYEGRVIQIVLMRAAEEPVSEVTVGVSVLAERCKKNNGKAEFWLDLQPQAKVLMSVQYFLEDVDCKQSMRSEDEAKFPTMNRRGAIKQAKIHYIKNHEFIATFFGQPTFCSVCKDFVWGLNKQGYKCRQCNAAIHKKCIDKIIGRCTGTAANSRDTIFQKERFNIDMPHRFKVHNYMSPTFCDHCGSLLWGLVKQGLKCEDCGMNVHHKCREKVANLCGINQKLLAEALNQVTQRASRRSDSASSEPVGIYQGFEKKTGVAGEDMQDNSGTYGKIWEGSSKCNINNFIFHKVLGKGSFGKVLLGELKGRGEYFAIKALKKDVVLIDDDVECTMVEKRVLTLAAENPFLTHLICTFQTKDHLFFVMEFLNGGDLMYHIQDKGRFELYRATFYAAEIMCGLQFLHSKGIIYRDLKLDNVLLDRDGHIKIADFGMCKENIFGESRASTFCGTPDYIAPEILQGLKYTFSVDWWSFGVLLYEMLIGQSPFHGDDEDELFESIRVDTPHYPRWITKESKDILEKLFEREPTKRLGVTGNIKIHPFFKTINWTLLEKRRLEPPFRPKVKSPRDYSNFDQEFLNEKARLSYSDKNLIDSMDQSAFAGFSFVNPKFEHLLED
Protocol: as §1

I338G v-Src [7] = assay: biochemical; design: species or system Rous sarcoma virus
I338G v-Src [8] = target: T4, I338G v-Src (Rous sarcoma virus subgroup A, UniProt P00524, DEL77-225/I338G); assay: biochemical
T4 construct: made in house; host or cells: E. coli DH5α (pGEX-KT)

## CC(C)(C)n1nc(-c2ccccc2)c2c(NC(=O)C3CCCC3)ncnc21 [Analog 3b, 4-cyclopentylamido-1-tert-butyl-3-phenylpyrazolo[3,4]pyrimidine]
[1]
  phosphoprotein band pattern: does not inhibit wild type v-Src kinase
[2]; 100 μM
  36 kDa phosphoprotein band: lost after treatment
[2]; inhibitor diluted
  inhibitor concentration at which phosphorylation of the 36 kDa band reappears: < 5 pM
wild-type Fyn
  IC50: > 400000 nM

## CC(C)(C)c1ccc(C(=O)Nc2ncnc3c2c(-c2ccccc2)nn3C(C)(C)C)cc1 [Analog 3g, 4-(p-tert-butyl)benzamido-1-tert-butyl-3-phenylpyrazolo[3,4-d]pyrimidine]
T339G Fyn
  IC50: 830 nM
  selectivity for T339G Fyn over WT Fyn: greater than 300 fold
PKA
  inhibition of PKA: not detectably inhibited
[3]; fluorescence microscopy
  polymerized actin pattern (phalloidin-FITC): indistinguishable from untreated WT cells
[3]; light microscopy
  cell morphology: prototypical rounded morphology and overlapping growth patterns of transformed cells
[4]; fluorescence microscopy
  polymerized actin pattern (phalloidin-FITC): defined polymerized actin strings; also recorded: selectively regain actin stress fibers
[4]; light microscopy
  cell morphology: dramatic changes in cell morphology which are consistent with the reversal of transformation; also recorded: selectively acquire a flattened morphology
[5]
  tyrosine phosphorylation in WT v-Src infected cells: no loss of tyrosine phosphorylation
[6]
  cellular IC50 relative to the in vitro value: roughly one-hundred times
[6]; 100 μM, twelve hours
  cellular level of phosphotyrosine: moderate overall decrease
  tyrosine phosphorylation of p36: dramatic diminution; also recorded: blocks p36 phosphorylation
[6]; Mus musculus, NIH3T3, read-out: IC50 for p36 phosphotyrosine signal
  IC50: 50000 nM
PKCδ
  inhibition of PKCδ: not detectably inhibited
I338G v-Src [7]; I338G v-Src vs WT Fyn
  selectivity for engineered v-Src over WT Fyn: over 700 times
I338G v-Src [7]; I338G v-Src vs WT v-Src
  selectivity for mutant v-Src as compared to wild type: at least a thousand-fold
I338G v-Src [8]
  IC50: 430 nM
  Ki: ~400 nM
I338G v-Src [8]; Lineweaver-Burk analysis
  mode of inhibition: competitively with respect to ATP
